Assay results published in PMC7491426 (Frontiers in Chemistry, 2020).
Several values for one entry are separate records, joined by “and”; a condition that tells them apart may be missing. Equal entries are not always repeated. Where two headings read alike, the source gives them in different places.

Assays:
[1] = molecular target: T1, HNE (human neutrophil elastase) (Homo sapiens, UniProt P08246); assay: HNE inhibition assay (fluorogenic substrate cleavage); type: biochemical
T1 construct: purchased Calbiochem
T1 sequence (P08246 30-267): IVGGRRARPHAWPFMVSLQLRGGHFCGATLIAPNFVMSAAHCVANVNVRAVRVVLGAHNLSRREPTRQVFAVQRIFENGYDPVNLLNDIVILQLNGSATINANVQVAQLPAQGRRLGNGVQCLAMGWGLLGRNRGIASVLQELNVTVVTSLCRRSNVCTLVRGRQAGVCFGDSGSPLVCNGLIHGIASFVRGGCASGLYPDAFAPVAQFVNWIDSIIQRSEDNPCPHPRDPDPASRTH
Procedure: Compounds were dissolved in 100% DMSO at 5 mM stock concentrations. […] HNE inhibition assays were performed in black flat-bottom 96-well microtiter plates. Briefly, a solution containing 200 mM Tris–HCl, pH 7.5, 0.01% bovine serum albumin, 0.05% Tween®-20, and 20 mU/mL of HNE (Calbiochem) was added to wells containing different concentrations of each compound. The reaction was initiated by addition of 25 μM elastase substrate (N-methylsuccinyl-Ala-Ala-Pro-Val-7-amino-4-methylcoumarin, Calbiochem) in a final reaction volume of 100 μL/well. Kinetic measurements were obtained every 30 s for 10 min at 25°C using a Fluoroskan Ascent FL fluorescence microplate reader (Thermo Electron, MA) with excitation and emission wavelengths of 355 and 460 nm, respectively. For all compounds tested, the concentration of inhibitor that caused 50% inhibition of the enzymatic reaction (IC50) was calculated by plotting % inhibition vs. logarithm of inhibitor concentration (at least six points).

[2] = Spontaneous hydrolysis (chemical stability) in aqueous phosphate buffer; type: physicochemical; conditions: for t1/2 for the spontaneous hydrolysis: 0.05 M phosphate buffer; for t1/2 for the spontaneous hydrolysis / half-life: pH 7.3, 25°C; for half-life: phosphate buffer, pH 7.3, 0.05 M phosphate buffer, read-out: t1/2 for the spontaneous hydrolysis (converted)
Procedure: Spontaneous hydrolysis of selected derivatives was evaluated at 25°C in 0.05 M phosphate buffer, pH 7.3. Kinetics of compound hydrolysis was monitored by measuring changes in absorbance spectra over time using a SpectraMax ABS Plus microplate spectrophotometer (Molecular Devices, Sunnyvale, CA). Absorbance (At) at the characteristic absorption maxima of each compound was monitored over time until no further absorbance decreases occurred (A∞). Using these measurements, we created semilogarithmic plots of log(At-A∞) vs. time, and k′ values were determined from the slopes of these plots. Half-conversion times were calculated using t1/2 = 0.693/k′.
Spontaneous hydrolysis rates of the inhibitors were measured in phosphate buffer at pH 7.3 and 25°C.

[3] = molecular target: T1, HNE (human neutrophil elastase); assay: Persistence of HNE inhibition over extended period of time (16 h); type: biochemical; conditions: monitored during 16 h in the presence of 10 μM inhibitor
Excerpt: The relatively high enzymatic stability of HNE allowed us to evaluate reversibility of the enzyme inhibition over time.

[4] = mean ± SD of three independent experiments, read-out: IC50 (HNE inhibitory activity)
[5] = restated in Table 5 beside docking geometry, read-out: IC50

CCOC(=O)c1cn(S(=O)(=O)c2ccc(OC(=O)C(C)(C)C)cc2)c2ccccc12 [Compound 3a, Ethyl 1-{[4-(pivaloyloxy)phenyl]sulfonyl}-1H-indole-3-carboxylate]
melting point: 118 to 121 °C
IC50 [1, 4]: < 0.1 µM and 0.03 µM
IC50 [1, 5]: 0.03 µM
t1/2 for the spontaneous hydrolysis [2]: 9.6 h
half-life [2]: > 9 h
Remaining HNE activity [3]: 5.5 ± 1.8%

CCOC(=O)c1cn(S(=O)(=O)c2ccc(OC(=O)C(C)(C)C)cc2)c2ccc([N+](=O)[O-])cc12 [Compound 3b, Ethyl 5-nitro-1-{[4-(pivaloyloxy)pheny]sulfonyl}-1H-indole-3-carboxylate]
melting point: 170 to 173 °C
IC50 [1, 4]: 0.025 ± 0.008 µM
half-life [2]: 6.1 h
Remaining HNE activity [3]: 20.5 ± 1.7%

CC(C)(C)C(=O)Oc1ccc(S(=O)(=O)n2cc(C#N)c3ccccc32)cc1 [Compound 3c, 4-[(3-Cyano-1H-indol-1-yl)sulfonyl]phenyl pivalate]
melting point: 133 to 136 °C
IC50 [1, 4]: < 0.1 µM and 0.049 µM
t1/2 for the spontaneous hydrolysis [2]: 14.4 h
half-life [2]: > 9 h
Remaining HNE activity [3]: 2.0 ± 0.4%

CC(C)(C)C(=O)Oc1ccc(S(=O)(=O)n2nc(C#N)c3ccccc32)cc1 [Compound 3d, 4-[(3-Cyano-1H-indazol-1-yl)sulfonyl]phenyl pivalate]
melting point: 155 to 158 °C
IC50 [1, 4]: 0.076 ± 0.011 µM
half-life [2]: 6.1 h
Remaining HNE activity [3]: 4.3 ± 0.3%

CC(C)(C)C(=O)Oc1ccc(S(=O)(=O)n2nc(C#N)c3cc([N+](=O)[O-])ccc32)cc1 [Compound 3e, 4-[(3-Cyano-5-nitro-1H-indazol-1-yl)sulfonyl]phenyl pivalate]
melting point: 183 to 186 °C
IC50 [1, 4]: 0.093 ± 0.027 µM
half-life [2]: 0.4 h
Remaining HNE activity [3]: 41.7 ± 3.2%

CCOC(=O)c1nn(S(=O)(=O)c2ccc(OC(=O)C(C)(C)C)cc2)c2ccccc12 [Compound 3f, Ethyl 1-{[4-(pivaloyloxy)phenyl]sulfonyl}-1H-indazole-3-carboxylate]
melting point: 132 to 135 °C
IC50 [1, 4]: < 0.1 µM and 0.015 µM
t1/2 for the spontaneous hydrolysis [2]: 10.5 h
half-life [2]: > 9 h
Remaining HNE activity [3]: 5.9 ± 1.2%

CCOC(=O)c1nn(S(=O)(=O)c2ccc(OC(=O)C(C)(C)C)cc2)c2ccc([N+](=O)[O-])cc12 [Compound 3g, Ethyl 5-nitro-1-{[4-(pivaloyloxy)phenyl]sulfonyl}-1H-indazole-3-carboxylate]
melting point: 185 to 188 °C
IC50 [1, 4]: 0.023 ± 0.01 µM
half-life [2]: 1.8 h
Remaining HNE activity [3]: 20.1 ± 1.6%

CC(C)(C)C(=O)Oc1ccc(S(=O)(=O)n2cc(C#N)c3cccnc32)cc1 [Compound 3i, 4-[(3-Cyano-1H-pyrrolo[2,3-b]pyridin-1-yl]sulfonyl)phenyl pivalate]
melting point: 176 to 179 °C
IC50 [1, 4]: 0.055 ± 0.012 µM
half-life [2]: 1.8 h
Remaining HNE activity [3]: 2.6 ± 0.5%

Cc1noc(-c2cn(S(=O)(=O)c3ccc(OC(=O)C(C)(C)C)cc3)c3ncccc23)n1 [Compound 3j, 4-{[3-(3-Methyl-1,2,4-oxadiazol-5-yl)-1H-pyrrolo[2,3-b]pyridin-1-yl]sulfonyl}phenyl pivalate]
melting point: 164 to 167 °C
IC50 [1, 4]: 0.043 ± 0.014 µM
half-life [2]: 2.5 h
Remaining HNE activity [3]: 26.2 ± 3.4%

CC(C)(C)C(=O)Oc1ccc(S(=O)(=O)n2nc(C(F)(F)F)c3cccnc32)cc1 [Compound 3k, 4-{[3-(Trifluoromethyl)-1H-pyrazolo[3,4-b]pyridin-1-yl]sulfonyl}phenyl pivalate]
melting point: 135 to 138 °C
IC50 [1, 4]: 0.135 ± 0.037 µM
half-life [2]: 1.3 h

CC(C)(C)C(=O)Oc1ccc(S(=O)(=O)n2nc(C#N)c3cccnc32)cc1 [Compound 3l, 4-[(3-Cyano-1H-pyrazolo[3,4-b]pyridin-1-yl)sulfonyl]phenyl pivalate]
melting point: 166 to 169 °C
IC50 [1, 4]: 0.066 ± 0.009 µM
half-life [2]: 3.5 h
Remaining HNE activity [3]: 4.5 ± 1.7%

Cc1cccc(C(=O)Nc2nn(S(=O)(=O)c3ccc(OC(=O)C(C)(C)C)cc3)c3ccccc23)c1 [Compound 4, 4-{[3-(3-Methylbenzamido)-1H-indazol-1-yl]sulfonyl}phenyl pivalate]
IC50 [1, 4]: 0.062 ± 0.012 µM
half-life [2]: 6.4 h
Remaining HNE activity [3]: 8.6 ± 1.7%

CCOC(=O)c1cn(C)c2ccc(NS(=O)(=O)c3ccc(OC(=O)C(C)(C)C)cc3)cc12 [Compound 7a, Ethyl 1-methyl-5-{[4-(pivaloyloxy)phenyl]sulfonamido}-1H-indole-3-carboxylate]
IC50 [1, 4]: 0.233 ± 0.076 µM
half-life [2]: 6.8 h

CCOC(=O)c1cn(C(=O)c2cccc(C)c2)c2ccc(NS(=O)(=O)c3ccc(OC(=O)C(C)(C)C)cc3)cc12 [Compound 7b, Ethyl 1-(3-methylbenzoyl)-5-{[4-(pivaloyloxy)phenyl]sulfonamido}-1H-indole-3-carboxylate]
melting point: 172 to 175 °C
IC50 [1, 4]: 5.2 ± 0.14 µM
IC50 [1, 5]: 5.2 µM
half-life [2]: 5.3 h

Cn1nc(C#N)c2cc(NS(=O)(=O)c3ccc(OC(=O)C(C)(C)C)cc3)ccc21 [Compound 7c, 4-[N-(3-Cyano-1-methyl-1H-indazol-5-yl)sulfamoyl]phenyl pivalate]
melting point: 162 to 165 °C
IC50 [1, 4]: 0.394 ± 0.038 µM
half-life [2]: 1.5 h

CCOC(=O)c1nn(C)c2ccc(NS(=O)(=O)c3ccc(OC(=O)C(C)(C)C)cc3)cc12 [Compound 7d, Ethyl 1-methyl-5-{[4-(pivaloyloxy)phenyl]sulfonamido}-1H-indazole-3-carboxylate]
melting point: 130 to 133 °C
IC50 [1, 4]: < 0.1 µM and 0.086 µM
IC50 [1, 5]: 0.086 µM
t1/2 for the spontaneous hydrolysis [2]: 16.5 h
half-life [2]: > 9 h
Remaining HNE activity [3]: 9.1 ± 2.5%

CCOC(=O)c1nn(C(=O)c2cccc(C)c2)c2ccc(NS(=O)(=O)c3ccc(OC(=O)C(C)(C)C)cc3)cc12 [Compound 7e, Ethyl 1-(3-methylbenzoyl)-5-{[4-(pivaloyloxy)phenyl]sulfonamido}-1H-indazole-3-carboxylate]
melting point: 180 to 182 °C
IC50 [1, 4]: 0.46 ± 0.12 µM
IC50 [1, 5]: 0.46 µM
half-life [2]: 5.8 h

CC(C)(C)C(=O)Oc1ccc(S(=O)(=O)n2ncc(=O)c3ccccc32)cc1 [Compound 9a, 4-[(4-Oxocinnolin-1(4H)-yl)sulfonyl]phenyl pivalate]
melting point: 116 to 119 °C
IC50 [1, 4]: 0.019 ± 0.005 µM
half-life [2]: 2.1 h
Remaining HNE activity [3]: 2.2 ± 0.1%

CC(C)(C)C(=O)Oc1ccc(S(=O)(=O)n2nc(C3CC3)c(=O)c3ccccc32)cc1 [Compound 9b, 4-[(3-Cyclopropyl-4-oxocinnolin-1(4H)-yl)sulfonyl]phenyl pivalate]
melting point: 121 to 123 °C
IC50 [1, 4]: 0.078 ± 0.018 µM
half-life [2]: 1.9 h
Remaining HNE activity [3]: 9.2 ± 2.5%

CC(C)(C)C(=O)Oc1ccc(S(=O)(=O)n2cc(-c3ccccc3)c(=O)o2)cc1 [Compound 11, 4-[(5-Oxo-4-phenylisoxazol-2(5H)-yl)sulfonyl]phenyl Pivalate]
melting point: 166 to 168 °C
IC50 [1, 4]: 0.29 ± 0.04 µM

Cc1c(-c2ccccc2)c(=O)on1S(=O)(=O)c1ccc(OC(=O)C(C)(C)C)cc1 [G, reference compound]
Chemical stability in aqueous buffer ([2]; data not shown): excellent chemical stability in aqueous buffer
half-life [2]: 5.8 h

CC(C)(C)C(=O)Oc1ccc(S(=O)(=O)Nc2ccccc2C(=O)NCC(=O)O)cc1 [Sivelestat, reference compound]
Remaining HNE activity [3]: 3.7 ± 0.1%
